According to patent US7208502B2, “Methods of treating conditions associated with an Edg-3 receptor” (Maniv Energy Capital, priority 2002, dated 2007):

Columns and labels:
[1] = target: T1, Edg-4 (Homo sapiens, UniProt Q9HBW0); test: Intracellular calcium assay, LPA-stimulated, HTC cells expressing Edg-4; assay type: cell-based; details: concentrations as high as 20 µM
T1 construct: expressed in transfected cells; host or cells: HTC rat hepatoma cells

[2] = target: T2, Edg-7 (Homo sapiens, UniProt Q9UBY5); test: Intracellular calcium assay, LPA-stimulated, HTC cells expressing Edg-7; assay type: cell-based; details: concentrations as high as 20 µM
T2 construct: expressed in transfected cells; host or cells: HTC rat hepatoma cells
T2 sequence (Q9UBY5 1-353): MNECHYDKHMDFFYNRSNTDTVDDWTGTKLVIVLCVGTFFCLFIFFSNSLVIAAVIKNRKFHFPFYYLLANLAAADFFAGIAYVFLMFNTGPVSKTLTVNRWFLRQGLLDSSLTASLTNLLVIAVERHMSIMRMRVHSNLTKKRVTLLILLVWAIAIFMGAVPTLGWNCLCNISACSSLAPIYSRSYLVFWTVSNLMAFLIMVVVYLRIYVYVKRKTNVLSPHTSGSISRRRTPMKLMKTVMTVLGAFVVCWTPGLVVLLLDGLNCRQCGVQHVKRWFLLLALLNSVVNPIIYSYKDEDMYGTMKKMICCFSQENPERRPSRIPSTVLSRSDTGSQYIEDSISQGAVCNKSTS

[3] = target: T3, Edg-5 (Homo sapiens, UniProt O95136); test: Intracellular calcium assay, S1P-stimulated, HTC cells expressing Edg-5; assay type: cell-based; details: concentrations as high as 20 µM
T3 construct: expressed in transfected cells; host or cells: HTC rat hepatoma cells

[4] = target: T4, Edg-8 (Homo sapiens, UniProt Q9H228); test: Intracellular calcium assay, S1P-stimulated, HTC cells expressing Edg-8; assay type: cell-based; details: concentrations as high as 20 µM
T4 construct: expressed in transfected cells; host or cells: HTC rat hepatoma cells

[5] = test system: Adrenergic α1, non-selective; test: Radioligand binding assay, 3H Prazosin; set-up: species or system Wistar Rat; details: 10 μM; significance criteria ≧50% of max stimulation or inhibition
Description: (§1) In order to test the selectivity of compounds, various enzyme assays as well as radioligand binding assays were performed using numerous non-Edg receptor targets as listed below.
(§2) A radioligand binding assay was performed using adrenergic α1 according to the method of Greengrass and Bremner 1979, Eur. J. Pharmacol. 55:323–326. A radioligand binding assay was performed using adrenergic α2 according to the method of Boyajian and Leslie, 1987, J. Pharmacol. Exp. Ther. 241:1092–1098. A radioligand binding assay was performed using adrenergic β according to the method of Feve et al., 1994, Proc. Natl. Acad. Sci. USA 91:5677–5681. A radioligand binding assay was performed using angiotensin AT2 according to the method of Whitebread et al., 1991, Biochem. Biophys. Res. Comm. 181:1365–1371. A radioligand binding assay was performed using calcium channel Type L, dihydropyridine according to the method of Ehlert et al., 1982, Life Sci. 30:2191–2202. A radioligand binding assay was performed using dopamine D2L according to the method of Bunzo et al., 1988, Nature 336:783–787. A radioligand binding assay was performed using endothelin ETA according to the method of Mihara et al., 1994, J. Phrmacol. Exp Ther. 268:1122–1127. A radioligand binding assay was performed using histamine H1 Central according to the method of Hill et al., 1978, J. Neurochem. 31:997–1004. […]
(§3) Quantitation Method: Radioligand Binding […]

[6] = test system: Adrenergic α2; test: Radioligand binding assay, 3H Rauwolscine; set-up: species or system Wistar rat; details: 10 μM; significance criteria ≧50% of max stimulation or inhibition
Description: as §1, §2, §3

[7] = test system: Calcium Channel Type L, Dihydropyridine; test: Radioligand binding assay, 3H Nitrendipine; set-up: species or system Wistar Rat; details: 10 μM; significance criteria ≧50% of max stimulation or inhibition
Description: as §1, §2, §3

[8] = target: T5, Endothelin ETA (Homo sapiens, UniProt P25101); test: Radioligand binding assay, 125I Endothelin; details: 10 μM; significance criteria ≧50% of max stimulation or inhibition
T5 construct: expressed in transfected cells; host or cells: CHO cells
T5 sequence (P25101 21-427): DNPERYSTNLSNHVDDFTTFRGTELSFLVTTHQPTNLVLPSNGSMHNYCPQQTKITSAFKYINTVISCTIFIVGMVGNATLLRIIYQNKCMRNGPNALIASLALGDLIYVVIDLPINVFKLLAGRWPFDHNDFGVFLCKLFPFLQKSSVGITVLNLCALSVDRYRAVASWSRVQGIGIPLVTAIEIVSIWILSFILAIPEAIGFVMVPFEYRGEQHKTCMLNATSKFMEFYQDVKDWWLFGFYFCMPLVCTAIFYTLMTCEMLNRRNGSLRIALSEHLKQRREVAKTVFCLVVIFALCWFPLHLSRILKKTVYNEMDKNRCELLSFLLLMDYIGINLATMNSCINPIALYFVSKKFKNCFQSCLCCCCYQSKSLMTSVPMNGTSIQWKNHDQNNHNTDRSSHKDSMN
Description: as §1, §2, §3

[9] = test system: Serotonin 5-HT1, non-selective; test: Radioligand binding assay, 3H Serotonin (5-HT) Trifluoroacetate; set-up: species or system Wistar rat; details: 10 μM; significance criteria ≧50% of max stimulation or inhibition
Description: as §1, §2, §3

T3 sequence (O95136 whole entry): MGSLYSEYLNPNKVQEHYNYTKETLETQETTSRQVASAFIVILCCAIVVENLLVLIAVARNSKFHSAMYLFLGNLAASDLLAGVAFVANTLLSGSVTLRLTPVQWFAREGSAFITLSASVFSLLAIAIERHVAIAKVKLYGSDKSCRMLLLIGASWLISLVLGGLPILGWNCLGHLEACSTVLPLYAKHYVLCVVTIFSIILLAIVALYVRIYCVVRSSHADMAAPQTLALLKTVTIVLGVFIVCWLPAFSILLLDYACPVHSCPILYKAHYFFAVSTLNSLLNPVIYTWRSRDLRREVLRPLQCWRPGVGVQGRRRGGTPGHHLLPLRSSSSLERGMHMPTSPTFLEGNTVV
T1 sequence (Q9HBW0 whole entry): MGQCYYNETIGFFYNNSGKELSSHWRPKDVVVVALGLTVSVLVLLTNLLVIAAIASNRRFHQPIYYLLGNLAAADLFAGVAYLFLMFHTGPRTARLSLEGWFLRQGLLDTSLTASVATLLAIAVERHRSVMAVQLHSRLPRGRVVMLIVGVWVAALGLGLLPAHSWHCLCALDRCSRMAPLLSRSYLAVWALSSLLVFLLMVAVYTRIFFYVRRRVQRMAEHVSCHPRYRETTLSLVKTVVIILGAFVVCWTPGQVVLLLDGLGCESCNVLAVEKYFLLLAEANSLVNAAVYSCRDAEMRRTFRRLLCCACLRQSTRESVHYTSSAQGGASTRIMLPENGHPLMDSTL
T4 sequence (Q9H228 whole entry): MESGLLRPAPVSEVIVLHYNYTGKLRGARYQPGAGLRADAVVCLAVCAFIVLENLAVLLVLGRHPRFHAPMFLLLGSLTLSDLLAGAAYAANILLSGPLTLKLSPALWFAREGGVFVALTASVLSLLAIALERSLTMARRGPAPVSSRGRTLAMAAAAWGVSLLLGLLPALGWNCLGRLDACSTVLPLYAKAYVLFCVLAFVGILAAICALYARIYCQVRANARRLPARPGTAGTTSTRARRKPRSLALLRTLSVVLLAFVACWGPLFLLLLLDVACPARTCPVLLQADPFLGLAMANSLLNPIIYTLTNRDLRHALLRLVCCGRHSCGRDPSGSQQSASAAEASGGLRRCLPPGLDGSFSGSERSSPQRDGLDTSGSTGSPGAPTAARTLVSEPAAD

Cc1c(-c2ccccc2)nc2ccccc2c1C(=O)NCc1ccc(F)cc1 [Compound 101, 3-methyl-2-phenyl-quinoline-4-carboxylic acid 4-fluoro-benzylamide]
inhibition of LPA-stimulated calcium increases, Edg-4 [1]: did not inhibit | inhibition of LPA-stimulated calcium increases, Edg-7 [2]: did not inhibit | inhibition of S1P-stimulated calcium increases, Edg-5 [3]: did not inhibit | inhibition of S1P-stimulated calcium increases, Edg-8 [4]: did not inhibit | activity in standard binding assay, Adrenergic α1 [5]: no activity | activity in standard binding assay, Adrenergic α2 [6]: no activity | activity in standard binding assay, Calcium Channel Type L, Dihydropyridine [7]: no activity | activity in standard binding assay, Endothelin ETA [8]: no activity | activity in standard binding assay, Serotonin 5-HT1, non-selective [9]: no activity
